Experimental data published in patent publication US9932637B2, “Genetic polymorphisms associated with cardiovascular disorders and drug response, methods of detection and uses thereof” (CELERA CORPORATION, priority 2003, dated 2018).

Test system: patients with prior myocardial infarction (CARE study)
Assay: CARE: association of SNPs with pravastatin treatment in cardiovascular events prevention (logistic regression, odds ratio pravastatin vs placebo by genotype; Table 8)
Assay type: in vivo, human
Conditions: for Fatal/Non-fatal Atherosclerotic CV Disease, n/total (%) / Hosp. for Cardiovascular Disease, n/total (%) / Total Cardiovascular Disease Events, n/total (%) / Prava vs. Placebo Odds Ratio, 0 Rare Alleles / Prava vs. Placebo Odds Ratio, 1 Rare Alleles / Prava vs. Placebo Odds Ratio, 2 Rare Alleles / Fatal CHD/Definite Non-fatal MI, n/total (%) / Total Coronary Heart Disease Events, n/total (%): All Patients; for Fatal/Non-fatal Atherosclerotic CV Disease, n/total (%) / Hosp. for Cardiovascular Disease, n/total (%) / Total Cardiovascular Disease Events, n/total (%) / Fatal CHD/Definite Non-fatal MI, n/total (%) / Total Coronary Heart Disease Events, n/total (%): Prava; for Stroke, n/total (%): PECAM1 hCV16170911, All Patients, Prava arm
Source text: In order to identify genetic markers associated with acute coronary events (e.g. MI, stroke, unstable angina, congestive heart failure, etc.) or response to statin treatment for the prevention of coronary events, samples from the Cholesterol and Recurrent Events (CARE) study (a randomized multicentral double-blinded trial on secondary prevention of acute coronary events with pravastatin) (Sacks et al., 1991, Am. J. Cardiol. 68: 1436-1446) were genotyped. A well-documented myocardial infarction (MI) was one of the enrollment criteria for entry into the CARE study. Patients were enrolled in the CARE trial from 80 participating study centers. […] Patients were randomized to receive either 40 mg of pravastatin once daily or a matching placebo. The primary endpoint of the trial was death from coronary heart disease and the median duration of follow-up was 5.0 years (range, 4.0 to 6.2 years). […] Secondary endpoints of other related cardiovascular or metabolic disease events, and changes in clinical variables were also recorded in pravastatin-treated and placebo groups. All individuals included in the study had signed a written informed consent form and the study protocol was approved by the respective Institutional Review Boards (IRBs).
For genotyping SNPs in CARE patient samples, DNA was extracted from blood samples using conventional DNA extraction methods such as the QIA-amp kit from Qiagen. Genotypes were obtained on an ABI PRISM® 7900HT Sequence Detection PCR system (Applied Biosystems, Foster City, Calif.) by kinetic allele-specific PCR, similar to the method described by Germer et al. (Germer S., Holland M. J., Higuchi R. 2000, Genome Res. 10: 258-266).
Statistical analysis for association of SNPs with pravastatin treatment in cardiovascular events prevention (Table 8) was carried out using an overall logistic regression model that included an intercept, a parameter for the effect of a genotype containing two rare alleles versus a genotype containing no rare alleles, a parameter for the effect of a genotype containing one rare allele versus a genotype containing no rare alleles, a parameter for the effect of use of pravastatin versus the use of placebo, and parameters for the interaction effects between SNP genotypes and pravastatin use. The test of the overall model is a chi-square test with two degrees of freedom for analyses containing all three genotypes, and one degree of freedom for analyses containing two genotypes.
Effect sizes were estimated through odds ratios (pravastatin group versus placebo) for carriers of each genotype (groups of 0, 1, and 2 minor allele carriers). The effect was considered to be significant if p-value for testing whether any of the interactions between SNP genotypes and pravastatin use were <0.05. […] Odds ratios less than one indicate that the specific SNP allele has a protective effect and odds ratios greater than one indicate that the specific SNP allele has an adverse effect.

[1] = NPC1 hCV7490135, Cardiovascular Mortality
[2] = NPC1 hCV7490135, Fatal Atherosclerotic Cardiovascular Disease
[3] = NPC1 hCV7490135, Fatal/Non-fatal Atherosclerotic CV Disease
[4] = NPC1 hCV7490135, Hosp. for Cardiovascular Disease
[5] = NPC1 hCV7490135, Total Cardiovascular Disease Events
[6] = NPC1 hCV7490135, Total Coronary Heart Disease Events
[7] = NPC1 hCV25472673, Fatal CHD/Definite Non-fatal MI
[8] = NPC1 hCV25472673, Fatal/Non-fatal Atherosclerotic CV Disease
[9] = NPC1 hCV25472673, Hosp. for Cardiovascular Disease
[10] = NPC1 hCV25472673, Total Cardiovascular Disease Events
[11] = NPC1 hCV25472673, Total Coronary Heart Disease Events
[12] = PEMT hCV7443062, Fatal CHD/Definite Non-fatal MI

SMILES: CC[C@H](C)C(=O)O[C@H]1C[C@H](O)C=C2C=C[C@H](C)[C@H](CC[C@@H](O)C[C@@H](O)CC(=O)O)[C@H]21 [pravastatin]
- Fatal/Non-fatal Atherosclerotic CV Disease, n/total (%) (NPC1 hCV7490135, 2 Rare Alleles, n/total 93/324): (28.7%)
- Hosp. for Cardiovascular Disease, n/total (%) (NPC1 hCV7490135, 2 Rare Alleles, n/total 117/324): (36.1%)
- Total Cardiovascular Disease Events, n/total (%) (NPC1 hCV7490135, 2 Rare Alleles, n/total 119/324): (36.7%)
- Prava vs. Placebo Odds Ratio, 0 Rare Alleles [1]: 1.30
- Prava vs. Placebo Odds Ratio, 1 Rare Alleles [1]: 0.83
- Prava vs. Placebo Odds Ratio, 2 Rare Alleles [1]: 0.20
- Prava vs. Placebo Odds Ratio, 0 Rare Alleles [2]: 1.25
- Prava vs. Placebo Odds Ratio, 1 Rare Alleles [2]: 0.83
- Prava vs. Placebo Odds Ratio, 2 Rare Alleles [2]: 0.20
- Prava vs. Placebo Odds Ratio, 0 Rare Alleles [3]: 1.07
- Prava vs. Placebo Odds Ratio, 1 Rare Alleles [3]: 0.73
- Prava vs. Placebo Odds Ratio, 2 Rare Alleles [3]: 0.56
- Prava vs. Placebo Odds Ratio, 0 Rare Alleles [4]: 1.01
- Prava vs. Placebo Odds Ratio, 1 Rare Alleles [4]: 0.76
- Prava vs. Placebo Odds Ratio, 2 Rare Alleles [4]: 0.52
- Prava vs. Placebo Odds Ratio, 0 Rare Alleles [5]: 1.02
- Prava vs. Placebo Odds Ratio, 1 Rare Alleles [5]: 0.75
- Prava vs. Placebo Odds Ratio, 2 Rare Alleles [5]: 0.52
- Prava vs. Placebo Odds Ratio, 0 Rare Alleles [6]: 1.07
- Prava vs. Placebo Odds Ratio, 1 Rare Alleles [6]: 0.72
- Prava vs. Placebo Odds Ratio, 2 Rare Alleles [6]: 0.58
- Fatal CHD/Definite Non-fatal MI, n/total (%) (NPC1 hCV25472673, 0 Rare Alleles, n/total 65/596): (10.9%)
- Total Coronary Heart Disease Events, n/total (%) (NPC1 hCV25472673, 0 Rare Alleles, n/total 193/596): (32.4%)
- Fatal/Non-fatal Atherosclerotic CV Disease, n/total (%) (NPC1 hCV25472673, 0 Rare Alleles, n/total 221/596): (37.1%)
- Hosp. for Cardiovascular Disease, n/total (%) (NPC1 hCV25472673, 0 Rare Alleles, n/total 262/596): (44.0%)
- Total Cardiovascular Disease Events, n/total (%) (NPC1 hCV25472673, 0 Rare Alleles, n/total 274/596): (46.0%)
- Fatal CHD/Definite Non-fatal MI, n/total (%) (NPC1 hCV25472673, 1 Rare Allele, n/total 56/664): (8.4%)
- Total Coronary Heart Disease Events, n/total (%) (NPC1 hCV25472673, 1 Rare Allele, n/total 186/664): (28.0%)
- Fatal/Non-fatal Atherosclerotic CV Disease, n/total (%) (NPC1 hCV25472673, 1 Rare Allele, n/total 213/664): (32.1%)
- Hosp. for Cardiovascular Disease, n/total (%) (NPC1 hCV25472673, 1 Rare Allele, n/total 255/664): (38.4%)
- Total Cardiovascular Disease Events, n/total (%) (NPC1 hCV25472673, 1 Rare Allele, n/total 259/664): (39.0%)
- Fatal CHD/Definite Non-fatal MI, n/total (%) (NPC1 hCV25472673, 2 Rare Alleles, n/total 19/242): (7.9%)
- Total Coronary Heart Disease Events, n/total (%) (NPC1 hCV25472673, 2 Rare Alleles, n/total 59/242): (24.4%)
- Fatal/Non-fatal Atherosclerotic CV Disease, n/total (%) (NPC1 hCV25472673, 2 Rare Alleles, n/total 68/242): (28.1%)
- Hosp. for Cardiovascular Disease, n/total (%) (NPC1 hCV25472673, 2 Rare Alleles, n/total 88/242): (36.4%)
- Total Cardiovascular Disease Events, n/total (%) (NPC1 hCV25472673, 2 Rare Alleles, n/total 90/242): (37.2%)
- Prava vs. Placebo Odds Ratio, 0 Rare Alleles [7]: 1.00
- Prava vs. Placebo Odds Ratio, 1 Rare Alleles [7]: 0.65
- Prava vs. Placebo Odds Ratio, 2 Rare Alleles [7]: 0.41
- Prava vs. Placebo Odds Ratio, 0 Rare Alleles [8]: 1.03
- Prava vs. Placebo Odds Ratio, 1 Rare Alleles [8]: 0.73
- Prava vs. Placebo Odds Ratio, 2 Rare Alleles [8]: 0.41
- Prava vs. Placebo Odds Ratio, 0 Rare Alleles [9]: 1.02
- Prava vs. Placebo Odds Ratio, 1 Rare Alleles [9]: 0.72
- Prava vs. Placebo Odds Ratio, 2 Rare Alleles [9]: 0.40
- Prava vs. Placebo Odds Ratio, 0 Rare Alleles [10]: 1.03
- Prava vs. Placebo Odds Ratio, 1 Rare Alleles [10]: 0.71
- Prava vs. Placebo Odds Ratio, 2 Rare Alleles [10]: 0.39
- Prava vs. Placebo Odds Ratio, 0 Rare Alleles [11]: 1.01
- Prava vs. Placebo Odds Ratio, 1 Rare Alleles [11]: 0.73
- Prava vs. Placebo Odds Ratio, 2 Rare Alleles [11]: 0.44
- Stroke, n/total (%) (0 Rare Alleles): (1.5%)
- Stroke, n/total (%) (1 Rare Allele): (3.1%)
- Stroke, n/total (%) (2 Rare Alleles): (0.9%)
- Fatal CHD/Definite Non-fatal MI, n/total (%) (PEMT hCV7443062, 0 Rare Alleles, n/total 34/478): (7.1%)
- Fatal CHD/Definite Non-fatal MI, n/total (%) (PEMT hCV7443062, 1 Rare Allele, n/total 72/735): (9.8%)
- Fatal CHD/Definite Non-fatal MI, n/total (%) (PEMT hCV7443062, 2 Rare Alleles, n/total 34/305): (11.1%)
- Prava vs. Placebo Odds Ratio, 0 Rare Alleles [12]: 0.42
- Prava vs. Placebo Odds Ratio, 1 Rare Alleles [12]: 0.87
